The results in this text go back to US7504421B2, “Substituted 2-thio-3,5-dicyano-4-aryl-6-aminopyridines and their use” (priority 1999, dated 2009).

Read-outs that look alike come from different tables or passages of the source.

The target in one assay is T1, adenosine A2b receptor (Homo sapiens, UniProt P29275).
T1 sequence (P29275 1-332): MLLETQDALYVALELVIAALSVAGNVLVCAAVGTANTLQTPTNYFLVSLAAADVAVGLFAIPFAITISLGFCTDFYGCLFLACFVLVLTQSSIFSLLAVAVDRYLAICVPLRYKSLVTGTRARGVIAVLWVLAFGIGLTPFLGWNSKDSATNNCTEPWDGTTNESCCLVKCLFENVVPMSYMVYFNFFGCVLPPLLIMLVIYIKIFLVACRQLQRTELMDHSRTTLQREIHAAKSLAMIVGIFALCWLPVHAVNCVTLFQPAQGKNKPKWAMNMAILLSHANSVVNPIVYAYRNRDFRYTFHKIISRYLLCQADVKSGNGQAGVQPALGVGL
The assay is described as follows: Intracellular cAMP (cAMP-RIA) in CHO cells transfected with cDNA for the A2b receptor, agonist mode. In kind it is cell-based. Particulars: for activity at 10 µM / activity at 1 µM / activity at 0.1 µM / activity at 0.01 µM / activity at 0.001 µM: read-out: Concentration of intracellular cAMP in percent; for agonistic effect on cells which express the adenosine receptor A2b (in words): summary of cAMP data. As to the method: (§1) Cells of the permanent line CHO (Chinese Hamster Ovary) were stably transfected with cDNA for the adenosine receptor subtypes A1, A2a, A2b and A3. Binding of the substances to the A2a or A2b receptor subtypes was determined by measuring the intracellular cAMP concentration in these cells using a conventional radioimmunological assay (cAMP-RIA, IBL GmbH, Hamburg, Germany).
(§2) In the case of the action of the substances as agonists, binding of the substances is expressed in an increase of the intracellular cAMP concentration.
In the experiments below, the intracellular cAMP concentration in CHO cells which had been transfected with cDNA for the A2b receptor was determined. What is stated is the cAMP concentration in percent in all cells in a well of a microtiter plate, based on the control value obtained without any substances acting on the cells: […]

The target of another assay is adenosine A2a receptor (Homo sapiens, UniProt P29274). Kind of assay: Intracellular cAMP (cAMP-RIA) in CHO cells transfected with cDNA for the A2a receptor, agonist mode. In kind it is cell-based. Particulars: for Concentration of intracellular cAMP in percent: CHO cells with A2a receptor, based on control without substance; for effect on cells with the A2a receptor (in words): summary of cAMP data. The procedure: as §1, §2
In the experiments below, the intracellular cAMP concentration in CHO cells which had been transfected with cDNA for the A2a receptor was determined. What is stated is the cAMP concentration in percent in all cells in a well of a microtiter plate, based on the control value obtained without any substances acting on the cells: […]

Another assay deals with T2, adenosine A1 receptor (Homo sapiens, UniProt P30542).
T2 sequence (P30542 1-326): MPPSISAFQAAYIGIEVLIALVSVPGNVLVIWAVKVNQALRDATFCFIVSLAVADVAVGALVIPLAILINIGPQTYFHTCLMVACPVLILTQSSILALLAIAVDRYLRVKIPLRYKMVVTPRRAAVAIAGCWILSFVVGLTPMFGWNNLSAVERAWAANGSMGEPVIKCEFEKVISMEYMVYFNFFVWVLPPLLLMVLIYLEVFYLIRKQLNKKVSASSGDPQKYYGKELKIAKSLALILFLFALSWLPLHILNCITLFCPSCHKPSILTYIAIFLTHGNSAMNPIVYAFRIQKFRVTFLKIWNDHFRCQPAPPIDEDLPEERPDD
The assay is described as follows: Intracellular cAMP in CHO cells transfected with cDNA for the A1 receptor after prestimulation with forskolin. The settings on record: for remaining activity at 10 µM / remaining activity at 1 µM / remaining activity at 0.1 µM: CHO cells with A1 receptor, based on control prestimulated with 1 μM forskolin for 15 min (18% without forskolin), read-out: Concentration of intracellular cAMP in percent; for remaining activity at 10 µM: 10^-5 M; for remaining activity at 1 µM: 10^-6 M; for remaining activity at 0.1 µM: 10^-7 M; for receptor selectivity: adenosine A1 receptor: conclusion from cAMP data on A1, A2a, A2b cells; for agonistic effect on cells with the A1 receptor (in words): summary of cAMP data. In kind it is cell-based. As to the method: as §1
The adenosine receptors A1 and A3 are coupled to a Gi protein, i.e. stimulation of these receptors results in an inhibition of adenylate cyclase and thus a reduction of the intracellular cAMP level. To identify A1/A3 receptor agonists, the adenylate cyclase is stimulated using forskolin. However, additional stimulation of the A1/A3 receptors inhibits adenylate cyclase, so that it is possible to detect A1/A3 receptor agonists by a comparatively low concentration of cAMP in the cell.
In the following experiments, the intracellular cAMP concentration in CHO cells transfected with the cDNA for the A1 receptor was determined.

Assay [1] concerns Langendorff heart of the rat (coronary arteries). Kind of assay: Langendorff heart of the rat: coronary perfusion pressure, left ventricular pressure, heart rate. The settings on record: isolated rat heart. The procedure:
After opening the thoracic cage of anesthetized rats, the heart is removed quickly and introduced into a conventional Langendorff apparatus. The coronary arteries are perfused at a constant volume (10 ml/min), and the resulting perfusion pressure is recorded via an appropriate pressure sensor. In this arrangement, a decrease of the perfusion pressure corresponds to a relaxation of the coronary arteries. At the same time, the pressure which is developed by the heart during each contraction is measured via a balloon introduced into the left ventricle and a further pressure sensor. The frequency of the isolated beating heart is calculated from the number of contractions per time unit.
In this test arrangement, the following values were obtained for the coronary perfusion pressure (the stated percentage refers to the reduction of the coronary perfusion pressure in percent at the respective concentration):
At the stated concentrations, the substances tested had no effect on the pressure developed during the contraction in the left ventricle and no effect on the heart rate.

[2] abbreviates: CHO cells with A2b receptor, 10^-5 M, based on control without substance.
Where [3] appears, read: CHO cells with A2b receptor, 10^-6 M, based on control without substance.
[4] abbreviates: CHO cells with A2b receptor, 10^-7 M, based on control without substance.

adenosine A2a receptor, sequence (P29274 whole entry): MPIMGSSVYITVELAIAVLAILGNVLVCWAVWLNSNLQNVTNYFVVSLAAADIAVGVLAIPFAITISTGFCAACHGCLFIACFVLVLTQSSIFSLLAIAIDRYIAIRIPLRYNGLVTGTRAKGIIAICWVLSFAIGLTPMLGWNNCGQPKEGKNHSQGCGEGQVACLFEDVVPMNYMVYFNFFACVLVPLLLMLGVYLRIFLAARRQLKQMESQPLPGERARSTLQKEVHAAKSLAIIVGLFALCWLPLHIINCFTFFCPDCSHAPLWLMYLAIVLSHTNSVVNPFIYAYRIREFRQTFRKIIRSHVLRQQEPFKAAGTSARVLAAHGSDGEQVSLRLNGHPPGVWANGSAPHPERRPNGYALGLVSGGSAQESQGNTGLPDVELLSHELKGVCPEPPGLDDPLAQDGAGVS

In the case of `CC(O)CSc1nc(N)c(C#N)c(-c2cccc(O)c2)c1C#N` (stereo not drawn) [A 46], the activity at 10 µM at adenosine A2b receptor (setting [2]) is 753%. Besides, on adenosine A2b receptor (setting [3]), the activity at 1 µM stood at 716%. Further, the activity at 0.1 µM at adenosine A2b receptor (setting [4]) was 463%. The “Concentration of intracellular cAMP in percent” value (“Concentration … in percent” below) on adenosine A2a receptor (10^-5 M) worked out at 183%; on adenosine A2a receptor (10^-6 M), 108%; on adenosine A2a receptor (10^-7 M), 67%.

On to `N#Cc1c(N)nc(SCCO)c(C#N)c1-c1cccc(O)c1` [A 43], for which the activity at 10 µM on adenosine A2b receptor (setting [2]) is 784%. Besides, the activity at 1 µM on adenosine A2b receptor (setting [3]) came out at 674%. Further, the activity at 0.1 µM at adenosine A2b receptor (setting [4]) was found to be 347%. Moreover, at adenosine A2b receptor, the “agonistic effect on cells which express the adenosine receptor A2b (in words)” value was “considerably weaker effect”. For the same compound, on adenosine A1 receptor, the remaining activity at 10 µM was determined as 22%, the remaining activity at 1 µM is 24%, the remaining activity at 0.1 µM stood at 18% and the “receptor selectivity: adenosine A1 receptor” value is listed as “selective adenosine A1 receptor agonists”. The “agonistic effect on cells with the A1 receptor (in words)” value at adenosine A1 receptor is recorded as “clear agonistic effect”. Moreover, the “Reduction of the coronary perfusion pressure in percent” value (“Reduction … in percent” below) in assay [1] (concentration 10^-6 g/ml) is on record as “about 68%”. In addition, in assay [1] (concentration 10^-7 g/ml), the “Reduction … in percent” value is given as “about 42%”. In addition, at adenosine A2a receptor (10^-5 M), the “Concentration … in percent” value was 317%. For the same compound, the “Concentration … in percent” value at adenosine A2a receptor (10^-6 M) was determined as 200%. Further, the “Concentration … in percent” value at adenosine A2a receptor (10^-7 M) was determined as 117%. In addition, the “effect on cells with the A2a receptor (in words)” value on adenosine A2a receptor is recorded as “virtually no effect”.

As to `N#Cc1c(N)nc(SCCO)c(C#N)c1-c1ccc(O)cc1` [Example 21, 2-Amino-6-[(2-hydroxyethyl)sulfanyl]-4-(4-hydroxyphenyl)-3,5-pyridinedicarbonitrile], at adenosine A2b receptor (CHO), the activity at 0.1 µM was 253%, the activity at 1 µM is 432% and the activity at 10 µM was determined as 384%. For the same compound, the “Reduction … in percent” value in assay [1] (concentration 10^-6 g/ml) was “about 75%”. Moreover, in assay [1] (concentration 10^-7 g/ml), the “Reduction … in percent” value is recorded as “about 40%”. For the same compound, the “Concentration … in percent” value on adenosine A2a receptor (10^-6 M) is recorded as 117%. At adenosine A2a receptor (10^-7 M), the “Concentration … in percent” value worked out at 143%.

Take `Cc1ccc(-c2c(C#N)c(N)nc(SCC(O)CO)c2C#N)cc1` (stereo not drawn) [A 198]: the “Reduction … in percent” value is recorded as “about 26%” in assay [1] (concentration 10^-6 g/ml) and “no effect observed” in assay [1] (concentration 10^-7 g/ml).

As for `N#Cc1c(N)nc(SCCO)c(C#N)c1-c1ccccc1` [A 104], the activity at 10 µM at adenosine A2b receptor (setting [2]) was determined as 571%. Besides, on adenosine A2b receptor (setting [3]), the activity at 1 µM turned out to be 586%. Further, the activity at 0.1 µM at adenosine A2b receptor (setting [4]) was found to be 438%. The activity at 0.01 µM at adenosine A2b receptor (CHO cells with A2b receptor, 10^-8 M, based on control without substance) was 178%. Further, the activity at 0.001 µM at adenosine A2b receptor (CHO cells with A2b receptor, 10^-9 M, based on control without substance) was found to be 100%. On adenosine A2b receptor, the “agonistic effect on cells which express the adenosine receptor A2b (in words)” value was “considerably weaker effect”. On adenosine A1 receptor, the remaining activity at 10 µM was 21%, the remaining activity at 1 µM came out at 23%, the remaining activity at 0.1 µM was 28% and the “receptor selectivity: adenosine A1 receptor” value is “selective adenosine A1 receptor agonists”. In addition, on adenosine A1 receptor, the “agonistic effect on cells with the A1 receptor (in words)” value is given as “clear agonistic effect”. For the same compound, the “Concentration … in percent” value on adenosine A2a receptor (10^-5 M) amounted to 212%. Further, the “Concentration … in percent” value on adenosine A2a receptor (10^-6 M) was 146%. Moreover, at adenosine A2a receptor (10^-7 M), the “Concentration … in percent” value came to 107%. Also, the “Concentration … in percent” value at adenosine A2a receptor (10^-8 M) worked out at 107%. Moreover, at adenosine A2a receptor (10^-9 M), the “Concentration … in percent” value turned out to be 104%. In addition, at adenosine A2a receptor, the “effect on cells with the A2a receptor (in words)” value is listed as “virtually no effect”.

With `N#Cc1c(N)nc(SCc2ncc[nH]2)c(C#N)c1-c1ccc(O)cc1` [A 379], at adenosine A2b receptor (CHO), the activity at 0.001 µM was found to be 870%, the activity at 0.01 µM came to 846%, the activity at 0.1 µM was determined as 861% and the activity at 1 µM came to 936%. Also, the “receptor selectivity: adenosine A2b receptor” value on adenosine A2b receptor (conclusion from cAMP data on A1, A2a, A2b cells) is “selective adenosine A2b receptor agonist”. Besides, the “agonistic effect on cells which express the adenosine receptor A2b (in words)” value at adenosine A2b receptor is “clear agonistic effect”. Moreover, on adenosine A1 receptor, the remaining activity at 10 µM is 35%, the remaining activity at 1 µM was found to be 34%, the remaining activity at 0.1 µM is 34% and the “agonistic effect on cells with the A1 receptor (in words)” value is given as “comparably weaker effect”. In assay [1] (concentration 10^-6 g/ml), the “Reduction … in percent” value is recorded as “about 63%”. The “Reduction … in percent” value in assay [1] (concentration 10^-7 g/ml) is on record as “about 64%”. Also, the “Concentration … in percent” value at adenosine A2a receptor (10^-5 M) is on record as 291%. For the same compound, the “Concentration … in percent” value on adenosine A2a receptor (10^-6 M) was determined as 235%. Besides, the “Concentration … in percent” value at adenosine A2a receptor (10^-7 M) is 218%. In addition, the “Concentration … in percent” value at adenosine A2a receptor (10^-8 M) was 160%. Also, the “Concentration … in percent” value on adenosine A2a receptor (10^-9 M) is 93%. For the same compound, on adenosine A2a receptor, the “effect on cells with the A2a receptor (in words)” value is reported as “virtually no effect”.

Consider `Cc1ccc(-c2c(C#N)c(N)nc(SCc3ccccc3)c2C#N)cc1` [A 189], for which the “Reduction … in percent” value in assay [1] (concentration 10^-6 g/ml) is “about 37%”; in assay [1] (concentration 10^-7 g/ml) it was “no effect observed”.

As to `N#Cc1c(N)nc(SCC(N)=O)c(C#N)c1-c1ccc(O)cc1` [A 1], the activity at 10 µM at adenosine A2b receptor (setting [2]) was 900%. The activity at 1 µM on adenosine A2b receptor (setting [3]) was found to be 947%. The activity at 0.1 µM at adenosine A2b receptor (setting [4]) came out at 837%. For the same compound, on adenosine A2b receptor, the “agonistic effect on cells which express the adenosine receptor A2b (in words)” value is recorded as “clear agonistic effect”. Also, the “Concentration … in percent” value amounted to 208% on adenosine A2a receptor (10^-5 M), 117% at adenosine A2a receptor (10^-6 M) and 92% at adenosine A2a receptor (10^-7 M). Besides, on adenosine A2a receptor, the “effect on cells with the A2a receptor (in words)” value is listed as “virtually no effect”.
